Read-outs that look alike come from different tables or passages of the source.
Legend:
mu opioid receptor = target: T1, mu opioid receptor (Rattus norvegicus, UniProt P33535); test: Rat Brain Mu Opioid Receptor Binding Assay (and Version 2a, [3H]DAMGO); conditions: rat forebrain membranes, margin of error 10-20%, read-out: r Ki μ
T1 construct: from tissue; host or cells: forebrain of male Wistar rats
Protocol: Male, Wistar rats (150-250 g, VAF, Charles River, Kingston, N.Y.) are killed by cervical dislocation, and their brains removed and placed immediately in ice cold Tris HCl buffer (50 mM, pH 7.4). The forebrains are separated from the remainder of the brain by a coronal transection, beginning dorsally at the colliculi and passing ventrally through the midbrain-pontine junction. After dissection, the forebrains are homogenized in Tris buffer in a Teflon® glass homogenizer. The homogenate is diluted to a concentration of 1 g of forebrain tissue per 80 mL Tris and centrifuged at 39,000×g for 10 min. The pellet is resuspended in the same volume of Tris buffer containing 5 mM MgCl2 with several brief pulses from a Polytron homogenizer. This particulate preparation is used for the mu-opioid binding assays. […] The filters are rinsed three times with 2 mL of 10 mM HEPES (pH7.4), and dried in a microwave oven 2 min twice. To each sample area 2×50 μL of Betaplate Scint scintillation fluid (LKB) is added and analyzed on a LKB (Wallac) 1205 BetaPlate liquid scintillation counter.
(§1) The data are used to calculate either the % inhibition compared to control binding (when only a single concentration of test compound is evaluated) or a Ki value (when a range of concentrations is tested). % inhibition is calculated as: [(total dpm-test compound dpm)/(total dpm-nonspecific dpm)]*100. Kd and Ki values were calculated using GraphPad PRISM data analysis program.
Male, Wistar rats (150-250 g, VAF, Charles River, Kingston, N.Y.) were killed by cervical dislocation, and their brains removed and placed immediately in ice-cold Tris HCl buffer (50 mM, pH 7.4). The forebrains were separated from the remainder of the brain by a coronal transection, beginning dorsally at the colliculi and passing ventrally through the midbrain-pontine junction. After dissection, the forebrains were homogenized in Tris buffer in a Teflon®-glass homogenizer. The homogenate was diluted to a concentration of 1 g of forebrain tissue per 80 mL Tris and centrifuged at 39,000×g for 10 min. The pellet was resuspended in the same volume of Tris buffer containing 5 mM MgCl2 with several brief pulses from a Polytron homogenizer. This particulate preparation was used for the mu opioid binding assay. Following incubation with 0.8 nM of the mu selective ligand [^3H]DAMGO at 25° C. for 2.5 h in a 96-well plate with total 1 mL, the plate contents were filtered through Wallac filtermat B sheets on a Tomtec 96-well harvester. The filters were rinsed three times with 2 mL of 10 mM HEPES (pH 7.4), and dried in a microwave oven. To each sample area, Betaplate Scint scintillation fluid (LKB) was added and the resulting radioactivity quantified on a LKB (Wallac) 1205 BetaPlate liquid scintillation counter. Kd and Ki values were calculated using the GraphPad PRISM data analysis program.

[1] = target: T2, mu opioid receptor (CHO-hMOR cell membranes) (Homo sapiens, UniProt P35372); test: Mu Opioid Receptor Functional Assay: [35S]GTPγS Binding in CHO-hMOR Cell Membranes, Versions 1 and 2; format: biochemical; conditions: for MOR GTP binding assay_v1 (% I): version 1, % inhibition of agonist-stimulated GTPγS binding; for MOR GTP assay_v1 % of Basal: version 1, basal binding = 100%
T2 construct: purchased Receptor Biology, Inc. (Baltimore, Md.); host or cells: CHO cells (recombinant expression)
Protocol: CHO-hMOR cell membranes were purchased from Receptor Biology, Inc. (Baltimore, Md.). About 10 mg/ml of membrane protein was suspended in 10 mM TRIS-HCl pH 7.2, 2 mM EDTA, 10% sucrose, and the suspension kept on ice. One ml of membranes was added to 15 ml cold binding assay buffer containing 50 mM HEPES, pH 7.6, 5 mM MgCl2, 100 mM NaCl, 1 mM DTT and 1 mM EDTA. The membrane suspension was homogenized with a Polytron and centrifuged at 3,000 rpm for 10 min. The supernatant was then centrifuged at 18,000 rpm for 20 min. The pellet was resuspended in 10 ml assay buffer with a Polytron.
The membranes were preincubated with wheat germ agglutinin coated SPA beads (Amersham) at 25° C. for 45 min in the assay buffer. The SPA bead (5 mg/ml) coupled membranes (10 μg/ml) were then incubated with 0.5 nM [^35S]GTPγS in the assay buffer. […] A range of concentrations of receptor agonists was used to stimulate [^35S]GTPγS binding. Both basal and non-specific binding was tested in the absence of agonist; non-specific binding determination included 10 μM unlabeled GTPγS.
Compounds were tested for function as antagonists by evaluating their potential to inhibit agonist-stimulated GTPγS binding. Radioactivity was quantified on a Packard TopCount. The following parameters were calculated:
[formula] % Inhibition=(% stimulation by 1 μM SNC80−% stimulation by 1 μM SNC80 in presence of test compound)×100/(% Stimulation by 1 μM SNC80−100)
EC50 values were calculated using GraphPad Prism.

human mu opioid receptor = target: T3, human mu opioid receptor (Homo sapiens, UniProt P35372); test: Human Mu Opioid Receptor Binding Assay (CHO membranes, 3H-Damgo); conditions: read-out: hKi μ
T3 construct: purchased Perkin Elmer RBHOMM400UA; host or cells: Chinese Hamster Ovary cells (recombinant expression)
Method in brief: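 Radioligand displacement of ³H-Damgo (diluted to 3.6 nM pre-mix) from recombinant human mu receptor in CHO membranes, 2 h, room temperature, 50 mM Tris pH 7.5 with 5 mM MgCl2. Bound label read by filtration and scintillation counting; 1 μM unlabelled Damgo defines nonspecific binding.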

delta opioid receptor = target: T4, delta opioid receptor (Rattus norvegicus, UniProt P33533); test: Rat Brain Delta Opioid Receptor Binding Assay ([3H]DPDPE); conditions: rat forebrain membranes, margin of error 10-20%, read-out: r Ki δ
T4 construct: from tissue; host or cells: forebrain of male Wistar rats
Protocol: Male, Wistar rats (150-250 g, VAF, Charles River, Kingston, N.Y.) are killed by cervical dislocation, and their brains removed and placed immediately in ice cold Tris HCl buffer (50 mM, pH 7.4). The forebrains are separated from the remainder of the brain by a coronal transection, beginning dorsally at the colliculi and passing ventrally through the midbrain-pontine junction. After dissection, the forebrains are homogenized in Tris buffer in a Teflon® glass homogenizer. The homogenate is diluted to a concentration of 1 g of forebrain tissue per 80 mL Tris and centrifuged at 39,000×g for 10 min. The pellet is resuspended in the same volume of Tris buffer containing 5 mM MgCl2 with several brief pulses from a Polytron homogenizer. This particulate preparation is used for the delta opioid binding assays. Following incubation with the delta selective peptide ligand ˜4 nM [^3H]DPDPE at 25° C. for 2.5 h in a 96-well plate with total volume of 1 mL, the plate contents are filtered through Wallac filtermat B sheets on a Tomtec 96-well harvester. The filters are rinsed three times with 2 mL of 10 mM HEPES (pH 7.4), and dried in a microwave oven 2 min twice. To each sample area 2×50 μL of Betaplate Scint scintillation fluid (LKB) is added and analyzed on a LKB (Wallac) 1205 BetaPlate liquid scintillation counter.
as §1, with “dpm−test” for “dpm-test”, “dpm−nonspecific” for “dpm-nonspecific”

[2] = target: T5, human delta subtype 2 opioid receptor (Homo sapiens, UniProt P41143); test: Human Delta Opioid Receptor Binding Assay (CHO membranes, 3H-Naltrindole); conditions: read-out: hKi δ
T5 construct: purchased Perkin Elmer RBHODM400UA; host or cells: Chinese Hamster Ovary cells (recombinant expression)
Method in brief: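 Compound displacement of tritiated naltrindole (6 nM working dilution) measured by scintillation counting after GF/C filtration. Receptor source: recombinant CHO membranes; buffer 50 mM Tris, 5 mM MgCl2, pH 7.5; 30 min room-temperature incubation. 1 μM cold naltrindole sets nonspecific binding.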

[3] = system: novel environment-stressed mice; test: In Vivo Assay-Stress-Induced Fecal Output (Fecal Output for 1 hr); design: species or system mouse; conditions: 30 mg/kg oral, 1 hr; for Fecal Output (# pellets) cpd: novel environment-stressed mice; for response vs control in vivo at 30 mg/kg: Mus musculus, po, 1 h
Text: This assay evaluates the fecal output in novel environment-stressed mice to that of acclimated controls.
Methods: Adult, male, Crl:CD-1(ICR) mice, weighing ˜30-35 g were used in these studies, with a minimum of 10 mice per dose group. One group of mice was assigned as acclimated, or “non-stressed” controls. These control mice were transported from colony housing, where they were housed 3/cage in polycarbonate cages with access to food and water ad lib. to the procedure room. The mice were removed from their home cages and individually housed in 20 cm wide×20 cm deep×15 cm tall cages, equipped with a wire mesh bottom where they remained for a 16-18 hr period of acclimation to their novel environment. Mice were allowed access to food and water ad lib. during acclimation. The other groups of mice were assigned as non-acclimated, or “stressed” treatment groups. Each mouse in each group was weighed and vehicle, or test compound, was intragastrically administered by oral intubation in 0.5% methylcellulose. Mice were allowed access to water only ad lib. during the test period. After compound administrations, acclimated (control) as well as non-acclimated (stressed) mice were individually housed in a 20 cm wide×20 cm deep×15 cm tall cage, with a wire mesh bottom. An absorbant cardboard is placed beneath the cages. The number of fecal pellets excreted by each mouse was determined at hourly intervals following placement of the mice in the individual cages. Raw Data=# of fecal pellets/mouse/hr. […]

[4] = relative to acclimated control, read-out: Fecal Output cpd % control
[5] = relative to novel environment stress (NES) vehicle group, read-out: Fecal Output cpd % NES

T5 sequence (P41143 whole entry): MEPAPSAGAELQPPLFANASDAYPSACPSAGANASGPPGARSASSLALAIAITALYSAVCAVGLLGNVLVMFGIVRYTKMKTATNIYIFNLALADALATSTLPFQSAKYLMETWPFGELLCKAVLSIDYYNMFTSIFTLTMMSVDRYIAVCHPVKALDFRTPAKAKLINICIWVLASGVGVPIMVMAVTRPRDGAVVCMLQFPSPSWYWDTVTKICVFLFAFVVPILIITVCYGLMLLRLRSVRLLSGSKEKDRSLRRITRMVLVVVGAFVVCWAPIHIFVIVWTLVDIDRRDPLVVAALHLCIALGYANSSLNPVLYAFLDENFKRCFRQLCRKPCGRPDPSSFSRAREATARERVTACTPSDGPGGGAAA
T2 sequence (P35372 whole entry): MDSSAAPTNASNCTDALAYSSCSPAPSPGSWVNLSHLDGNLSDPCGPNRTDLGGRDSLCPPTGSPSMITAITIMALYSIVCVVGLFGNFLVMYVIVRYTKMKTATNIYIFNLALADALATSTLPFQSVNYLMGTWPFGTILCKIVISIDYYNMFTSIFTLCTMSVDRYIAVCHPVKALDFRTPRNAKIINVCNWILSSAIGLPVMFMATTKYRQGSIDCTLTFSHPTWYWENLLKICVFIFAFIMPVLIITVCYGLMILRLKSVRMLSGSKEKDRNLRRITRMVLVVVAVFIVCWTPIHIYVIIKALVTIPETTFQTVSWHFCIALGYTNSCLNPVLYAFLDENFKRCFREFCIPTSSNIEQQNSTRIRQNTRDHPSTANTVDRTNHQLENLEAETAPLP
T3 sequence (P35372 whole entry): as above
T1 sequence (P33535 whole entry): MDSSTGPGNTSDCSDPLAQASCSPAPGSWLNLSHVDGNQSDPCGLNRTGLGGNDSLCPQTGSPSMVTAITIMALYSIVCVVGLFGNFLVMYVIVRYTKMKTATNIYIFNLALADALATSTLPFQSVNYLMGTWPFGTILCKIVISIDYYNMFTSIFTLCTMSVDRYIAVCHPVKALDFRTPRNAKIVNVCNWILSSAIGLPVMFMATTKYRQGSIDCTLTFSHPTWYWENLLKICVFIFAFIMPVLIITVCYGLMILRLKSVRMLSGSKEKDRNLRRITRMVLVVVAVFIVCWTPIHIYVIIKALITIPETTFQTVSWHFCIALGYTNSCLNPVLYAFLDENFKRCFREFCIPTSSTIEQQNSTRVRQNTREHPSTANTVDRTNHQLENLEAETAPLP
T4 sequence (P33533 whole entry): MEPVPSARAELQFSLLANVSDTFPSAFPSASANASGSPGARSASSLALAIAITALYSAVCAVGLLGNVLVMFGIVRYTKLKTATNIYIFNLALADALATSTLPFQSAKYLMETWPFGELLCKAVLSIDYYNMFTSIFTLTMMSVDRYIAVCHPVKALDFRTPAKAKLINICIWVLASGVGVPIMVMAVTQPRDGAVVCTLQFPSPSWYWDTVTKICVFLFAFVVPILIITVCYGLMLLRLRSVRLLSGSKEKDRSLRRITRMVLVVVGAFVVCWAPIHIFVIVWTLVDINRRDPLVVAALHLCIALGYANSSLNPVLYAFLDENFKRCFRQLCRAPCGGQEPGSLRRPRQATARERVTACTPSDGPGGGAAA

SMILES | Ki (mu opioid receptor) [nM] | Ki (human mu opioid receptor) [nM] | Ki [2] [nM] | Fecal Output (# pellets) cpd [3] [pellets] | response vs control in vivo at 30 mg/kg [3, 4] [%] | response vs control in vivo at 30 mg/kg [3, 5] [%] | other results
CNC(=O)c1cc(C)c(C[C@H](N)C(=O)N(C)[C@H](C)c2nc(-c3ccccc3)c[nH]2)c(C)c1 [Cpd 184] | 19.5 |  |  |  |  |  | MOR GTP binding assay_v1 (% I) [1]: 13.00%; MOR GTP assay_v1 % of Basal [1]: 862.00%
Cc1cc(O)cc(C)c1C[C@H](N)C(=O)N(Cc1nc(-c2ccccc2)c[nH]1)C(C)CN(C)C (some centres unmarked) [Cpd 167] | 3.15 | 4.2 |  |  |  |  | MOR GTP binding assay_v1 (% I) [1]: 17.00%; MOR GTP assay_v1 % of Basal [1]: 780.00%
COc1ccc(CN(Cc2nc(-c3ccccc3)c[nH]2)C(=O)[C@@H](N)Cc2c(C)cc(C(N)=O)cc2C)cc1C(=O)O [Cpd 6] |  | 2 |  |  |  |  | Ki (delta opioid receptor): 1.7 nM
CC(C)[C@@H](c1nc(-c2ccccc2)c[nH]1)N(C)C(=O)[C@@H](N)Cc1ccc(O)cc1 [Cpd 171] | 141 |  |  |  |  |  | 
Cc1cc(O)cc(C)c1C[C@H](N)C(=O)N(C(C)C)[C@@H](Cc1cccc(C#N)c1)c1nc(-c2ccccc2)c[nH]1 [Cpd 122] |  | 12.8 | 107 |  |  |  | MOR GTP binding assay_v1 (% I) [1]: 41.93%; MOR GTP assay_v1 % of Basal [1]: 278.08%
Cc1cc(C(N)=O)cc(C)c1C[C@H](N)C(=O)N(Cc1cccc(C(=O)O)c1)[C@@H](C)c1nc(-c2ccc(Cl)cc2)c(C)[nH]1 [Cpd 12] |  | 4.1 |  |  |  |  | Ki (delta opioid receptor): 0.08 nM
Cc1cc(C(N)=O)cc(C)c1C[C@H](N)C(=O)N(Cc1nc(-c2ccccc2)c[nH]1)[C@@H](C)c1ccccc1 [Cpd 95] |  | 7.8 | 278 | 8.5 | 315 | 93.4 | 
COC(=O)c1ccc(CN(C(=O)[C@@H](N)Cc2c(C)cc(O)cc2C)[C@@H](C)c2nc(-c3ccccc3)c[nH]2)cc1 [Cpd 89] |  | 9.2 | 19.3 | 6.4 | 128 | 55.2 | 
CC(=O)Nc1ccc(CN(C(=O)[C@@H](N)Cc2c(C)cc(O)cc2C)[C@@H](C)c2nc(-c3ccccc3)c[nH]2)cc1 [Cpd 79] |  | 1.7 | 11.5 | 7.1 | 197 | 97.3 | 
Cc1cc(C(N)=O)cc(C)c1C[C@H](N)C(=O)N(C(C)c1ccccc1)[C@@H](C)c1nc(-c2ccccc2)c[nH]1 (single isomer, unassigned) [Cpd 112] |  | 9.5 | 135 | 7.2 |  |  | Fecal Output cpd % control ([3]; relative to acclimated control): 100.0%; Fecal Output cpd % NES ([3]; relative to novel environment stress (NES) vehicle group): 69.9%
Cc1cc(C(N)=O)cc(C)c1C[C@H](N)C(=O)N(Cc1ccccc1)[C@@H](C)c1nc(-c2ccc(Cl)cc2)c(C)[nH]1 [Cpd 58] |  | 8.5 | 70 | 3.9 | 170 | 55.7 | 
CC(C)C[C@@H](c1nc(-c2ccccc2)c[nH]1)N(C)C(=O)[C@@H](N)Cc1cccc(C#N)c1 [Cpd 169] | 853 |  |  |  |  |  | 
Cc1cc(O)cc(C)c1C[C@H](N)C(=O)N[C@@H](Cc1cccc(C(N)=O)c1)c1nc(-c2ccccc2)c[nH]1 [Cpd 172] | 150 |  |  |  |  |  | 
Cc1cc(C(=O)N2CCOCC2)cc(C)c1C[C@H](N)C(=O)N(C)[C@@H](C)c1nc(-c2ccccc2)c[nH]1 [Cpd 179] | 7120 |  |  |  |  |  | 
Cc1cc(O)cc(C)c1C[C@H](N)C(=O)N(Cc1cccc(C#N)c1)[C@@H](C)c1nc(-c2ccccc2)c[nH]1 [Cpd 91] |  | 4.8 | 15 | 8.9 | 287 | 69 | 
Cc1cc(O)cc(C)c1C[C@H](N)C(=O)N[C@@H](CC(C)C)c1nc(-c2ccccc2)c[nH]1 [Cpd 176] | 156 |  |  |  |  |  | 

From patent US10213415B2, “Compounds as opioid receptor modulators” (JANSSEN PHARMACEUTICA NV, priority 2004, dated 2019)
